# Source: US20240099214A1, “PLANT DEFENCE GENE EXPRESSION” (UPL Corporation Limited, priority 2021, published 2024)
# Tests used:
# [1] = test system: Nbs-Irr resistance protein (gene 3, Solyc05g009760.1); assay: qRT-PCR expression of gene 3 in tomato leaves; assay type: in vivo, Tomato ecotype corbarino; set-up: key: relative expression normalized to a-tubulin housekeeping gene
# Experimental: (§1) Tomato ecotype “corbarino” reported to be susceptible to TSWV infection was used in the experiment. Plants were grown in pots in a climatic chamber with a photoperiod of 16/8 hour at 25° C.
# (§2) The viral strain (TSWV PV PV-0393) was utilized in the experiment. The virus was mechanically inoculated and propagated on tomato “corbarino”. The inoculum was prepared in an ice-cooled mortar grounding 1 gr of infected tomato tissue in 10 ml of Na-phosphate buffer 0.01M. The fresh prepared inoculum was stored in ice before use. Tomato plants at BBCH16 were dusted with Carborundum 600 mesh and selected leaves were rubbed with some droplets of inoculum. After 5 min. plants were sprayed with sterile water to remove the excess of inoculum and preserve the cell turgor.
# (§3) Four treatments were compared: i) Mock inoculated; ii) TSWV; iii) 0.25% Laminarin; iv) 0.25% Laminarin+TSWV. In the last treatment the virus was inoculated 24 hrs after the laminarin application.
# (§4) Total RNA was extracted from systemic infected tomato leaves by using the Quick-RNA Plant Kit (Zymo Research) following the manufacturer instructions. The extractions were carried out using three plants after 12 h, 24 h, 48 h, 72 h, 7 days after inoculation. Leaves were instantly frozen in liquid nitrogen after cutting to avoid any deterioration of the sample as well as any defense reaction. The RNA concentration was quantified by measuring the absorbance at 260 nm using a Nanodrop 2000 (Thermofisher). The purity of all of the RNA samples was assessed at an absorbance ratio of OD260/280 and OD260/230, while its structural integrity was checked by agarose gel electrophoresis. Only high-quality RNA with OD 260/280 and OD 260/230>2 was used for subsequent steps. Single-stranded cDNA was synthesized from 1 μg of total RNA using an iScript™ Select cDNA Synthesis Kit and random hexamers as primers (Bio-Rad, Milan, Italy), according to the manufacturer's instructions. Three biological replicates were created from the 3 leaves collected to test 15 genes. Alpha tubulin was used as reference gene.
# (§5) qPCR reactions were performed with BioRad (Applied Biosystems, Foster City, CA, USA) using SYBR R Green. Each reaction was performed in 20 μl containing 10 μl of 2× Power SYBR Green PCR Master Mix (Life Technologies), 0.2-0.3 μM primers and cDNA samples diluted 1:20. Each qPCR reaction was performed in triplicate. Reactions were run using the cycling parameter described previously (Reid et al., 2006) and the qPCR data were analyzed by the Ct method (Pfaffl, 2001). In order to analyze the qPCR data, a-tubulin gene was used as housekeeping to determine the relative expression level of the other genes analyzed in this work. For the determination of qPCR efficiency of each primer pairs, a standard curve was performed using the following cDNA dilutions: 1:4, 1:16, 1:64; 1:256 and 1:1024. Every measurement was made in triplicate. The corresponding qPCR efficiencies (E) were calculated for every primer pair with the software 7300 System SDS software (Applied Biosystems, Foster City, CA, USA) according to the equation E=(10−1/slope−1)×100 (Rutledge and Stewart, 2008).
# (§6) The significance of the differences between the gene expressions levels were compared by one-way ANOVA (p=0.01) and the means were separated by Tukey post-hoc test using SPSS ver.26 ([…]).
# [2] = test system: E3 Ubiquitin-protein ligase march3 (gene 2, Solyc01g079530.2); assay: qRT-PCR expression of gene 2 in tomato leaves; assay type: in vivo, Tomato ecotype corbarino; set-up: key: relative expression normalized to a-tubulin housekeeping gene
# Experimental: as §1, §2, §3, §4, §5, §6
substance,measurement,setting,value
laminarin,RQ1,"[1]; 12 hr, Laminarin + virus",11.935
same,RQ2,"[1]; 12 hr, Laminarin + virus",12.286
same,RQ3,"[1]; 12 hr, Laminarin + virus",0.9487
same,RQ mean,"[1]; 12 hr, Laminarin + virus",11.236
same,RQ1,"[1]; 12 hr, Laminarin alone",10.545
same,RQ2,"[1]; 12 hr, Laminarin alone",10.498
same,RQ3,"[1]; 12 hr, Laminarin alone",0.8329
same,RQ mean,"[1]; 12 hr, Laminarin alone",0.9791
same,RQ1,"[1]; 24 hr, Laminarin + virus",11.167
same,RQ2,"[1]; 24 hr, Laminarin + virus",10.509
same,RQ3,"[1]; 24 hr, Laminarin + virus",13.936
same,RQ mean,"[1]; 24 hr, Laminarin + virus",11.871
same,RQ1,"[1]; 24 hr, Laminarin alone",12.229
same,RQ2,"[1]; 24 hr, Laminarin alone",13.976
same,RQ3,"[1]; 24 hr, Laminarin alone",11.514
same,RQ mean,"[1]; 24 hr, Laminarin alone",12.573
same,RQ1,"[1]; 48 hr, Laminarin + virus",12.976
same,RQ2,"[1]; 48 hr, Laminarin + virus",26.960
same,RQ3,"[1]; 48 hr, Laminarin + virus",15.208
same,RQ mean,"[1]; 48 hr, Laminarin + virus",18.381
same,RQ1,"[1]; 48 hr, Laminarin alone",27.419
same,RQ2,"[1]; 48 hr, Laminarin alone",26.255
same,RQ3,"[1]; 48 hr, Laminarin alone",14.098
same,RQ mean,"[1]; 48 hr, Laminarin alone",22.591
same,RQ1,"[1]; 72 hr, Laminarin + virus",47.747
same,RQ2,"[1]; 72 hr, Laminarin + virus",48.776
same,RQ3,"[1]; 72 hr, Laminarin + virus",16.860
same,RQ mean,"[1]; 72 hr, Laminarin + virus",37.794
same,RQ1,"[1]; 72 hr, Laminarin alone",19.725
same,RQ2,"[1]; 72 hr, Laminarin alone",58.615
same,RQ3,"[1]; 72 hr, Laminarin alone",21.699
same,RQ mean,"[1]; 72 hr, Laminarin alone",33.346
same,RQ1,"[2]; 12 hr, Laminarin + virus",13.056
same,RQ2,"[2]; 12 hr, Laminarin + virus",23.403
same,RQ3,"[2]; 12 hr, Laminarin + virus",12.079
same,RQ mean,"[2]; 12 hr, Laminarin + virus",16.179
same,RQ1,"[2]; 12 hr, Laminarin alone",13.140
same,RQ2,"[2]; 12 hr, Laminarin alone",19.586
same,RQ3,"[2]; 12 hr, Laminarin alone",10.706
same,RQ mean,"[2]; 12 hr, Laminarin alone",14.477
same,RQ1,"[2]; 24 hr, Laminarin + virus",11.700
same,RQ2,"[2]; 24 hr, Laminarin + virus",13.596
same,RQ3,"[2]; 24 hr, Laminarin + virus",12.341
same,RQ mean,"[2]; 24 hr, Laminarin + virus",12.546
same,RQ1,"[2]; 24 hr, Laminarin alone",13.152
same,RQ2,"[2]; 24 hr, Laminarin alone",13.329
same,RQ3,"[2]; 24 hr, Laminarin alone",14.033
same,RQ mean,"[2]; 24 hr, Laminarin alone",13.505
same,RQ1,"[2]; 48 hr, Laminarin + virus",24.083
same,RQ2,"[2]; 48 hr, Laminarin + virus",18.519
same,RQ3,"[2]; 48 hr, Laminarin + virus",21.352
same,RQ mean,"[2]; 48 hr, Laminarin + virus",21.318
same,RQ1,"[2]; 48 hr, Laminarin alone",27.467
same,RQ2,"[2]; 48 hr, Laminarin alone",17.321
same,RQ3,"[2]; 48 hr, Laminarin alone",23.298
same,RQ mean,"[2]; 48 hr, Laminarin alone",22.695
same,RQ1,"[2]; 72 hr, Laminarin + virus",28.726
same,RQ2,"[2]; 72 hr, Laminarin + virus",29.558
same,RQ3,"[2]; 72 hr, Laminarin + virus",37.336
same,RQ mean,"[2]; 72 hr, Laminarin + virus",31.873
same,RQ1,"[2]; 72 hr, Laminarin alone",29.447
same,RQ2,"[2]; 72 hr, Laminarin alone",23.000
same,RQ3,"[2]; 72 hr, Laminarin alone",53.007
same,RQ mean,"[2]; 72 hr, Laminarin alone",35.151
